# Legend:
# Conditions in all cases: 1% DMSO vehicle
# PDE1 = biological target: T1, PDE1 (Bos taurus, UniProt P14100); assay: PDE1 enzyme inhibition assay; format: biochemical, bovine
# T1 construct: PDE1 partially purified from bovine heart was used; from tissue; host or cells: bovine heart
# Excerpt: In this example, a racemic mixture of monochloroflosequinan and the sulfone derivative of monochloroflosequinan were independently subjected to biochemical enzyme assays to determine their respective percent inhibition of a variety of phosphodiesterases (PDE1-PDE6). The methods used have been adapted from those described in the scientific literature, see Hidaka and Asano “Human blood platelet 3′:5′ cyclic nucleotide phosphodiesterase. Isolation of low-Km and high Km phosphodiesterase.” Biochem. Biophys. Acta 429:485 (1976); Nicholoson et al. “Differential modulation of tissue function and therapeutic potential of selective inhibitors of cyclic nucleotide phosphodiesterase isoenzymes” Trends Pharmacol. Sci. 12:19 (1991); Cortijo et al. “Investigation into the role of phosphodiesterase IV in bronchorelaxation, including studies with hyman bronchus.” Br. J. Pharmacol. 108:562 (1993); Baehr et al. “Isolation and characterization of cGMP phosphodiesterase from bovine rod outer segments.” J. Biol. Chem. 254:11669 (1979) and Gillespie and Beavo “Inhibition and stimulation of photoreceptor phosphodiesterase by dipyridamole and M&B 22,948” Molecular Pharm. 36:773 (1989). A brief summary of the conditions for each enzyme assay is provided below: • PDE1: PDE1 partially purified from bovine heart was used. The compounds were independently incubated with 13 μg PDE1 enzyme, 1.01 μM [^3H]cAMP+cAMP and CaCl2/calmodulin in Tris buffer pH 7.5 for 20 minutes at either 25° C. or 30° C. The reaction was terminated by boiling for 2 minutes, and the resulting AMP was converted to adenosine by addition of 10 mg/ml snake venom nucleotidase and further incubation at 30° C. for 10 minutes. Unhydrolyzed cAMP was bound to AGI-X2 resin, and the remaining [^3H]adenosine in the aqueous phase was quantitated by scintillation counting. • PDE2: PDE2 partially purified from human platelets was used. The compounds were independently incubated with 23 μg PDE2 enzyme, 25.1 μM [^3H]cAMP+cAMP in Tris buffer pH 7.5 for 20 minutes at either 25° C. or 30° C. The reaction was terminated by boiling for 2 minutes, and the resulting AMP was converted to adenosine by addition of 10 mg/ml snake venom nucleotidase and further incubation at 30° C. for 10 minutes. Unhydrolyzed cAMP was bound to AGI-X2 resin, and the remaining [^3H]adenosine in the aqueous phase was quantitated by scintillation counting. • PDE3: PDE3 partially purified from human platelets was used. The compounds were independently incubated with 13 ug PDE3 enzyme and 1.01 μM [^3H]cAMP+cAMP in Tris buffer pH 7.5 for 20 minutes at either 25° C. or 30° C. The reaction was terminated by boiling for 2 minutes, and the resulting AMP was converted to adenosine by addition of 10 mg/ml snake venom nucleotidase and further incubation at 30° C. for 10 minutes. Unhydrolyzed cAMP was bound to AGI-X2 resin, and the remaining [^3H]adenosine in the aqueous phase was quantitated by scintillation counting. • PDE4: PDE4 partially purified from human U-937 pronocytic cells was used. The compounds were independently incubated with 20 μg PDE4 enzyme and 1.01 μM [^3H]cAMP+cAMP in Tris buffer pH 7.5 for 20 minutes at either 25° C. or 30° C. […] Unhydrolyzed cAMP was bound to AGI-X2 resin, and the remaining [^3H]adenosine in the aqueous phase was quantitated by scintillation counting. • PDE5: PDE5 partially purified from human platelets was used. […]
# PDE2 = biological target: T2, PDE2 (Homo sapiens, UniProt O00408); assay: PDE2 enzyme inhibition assay; format: biochemical
# T2 construct: PDE2 partially purified from human platelets was used; from tissue; host or cells: human platelets
# T2 sequence (O00408 whole entry): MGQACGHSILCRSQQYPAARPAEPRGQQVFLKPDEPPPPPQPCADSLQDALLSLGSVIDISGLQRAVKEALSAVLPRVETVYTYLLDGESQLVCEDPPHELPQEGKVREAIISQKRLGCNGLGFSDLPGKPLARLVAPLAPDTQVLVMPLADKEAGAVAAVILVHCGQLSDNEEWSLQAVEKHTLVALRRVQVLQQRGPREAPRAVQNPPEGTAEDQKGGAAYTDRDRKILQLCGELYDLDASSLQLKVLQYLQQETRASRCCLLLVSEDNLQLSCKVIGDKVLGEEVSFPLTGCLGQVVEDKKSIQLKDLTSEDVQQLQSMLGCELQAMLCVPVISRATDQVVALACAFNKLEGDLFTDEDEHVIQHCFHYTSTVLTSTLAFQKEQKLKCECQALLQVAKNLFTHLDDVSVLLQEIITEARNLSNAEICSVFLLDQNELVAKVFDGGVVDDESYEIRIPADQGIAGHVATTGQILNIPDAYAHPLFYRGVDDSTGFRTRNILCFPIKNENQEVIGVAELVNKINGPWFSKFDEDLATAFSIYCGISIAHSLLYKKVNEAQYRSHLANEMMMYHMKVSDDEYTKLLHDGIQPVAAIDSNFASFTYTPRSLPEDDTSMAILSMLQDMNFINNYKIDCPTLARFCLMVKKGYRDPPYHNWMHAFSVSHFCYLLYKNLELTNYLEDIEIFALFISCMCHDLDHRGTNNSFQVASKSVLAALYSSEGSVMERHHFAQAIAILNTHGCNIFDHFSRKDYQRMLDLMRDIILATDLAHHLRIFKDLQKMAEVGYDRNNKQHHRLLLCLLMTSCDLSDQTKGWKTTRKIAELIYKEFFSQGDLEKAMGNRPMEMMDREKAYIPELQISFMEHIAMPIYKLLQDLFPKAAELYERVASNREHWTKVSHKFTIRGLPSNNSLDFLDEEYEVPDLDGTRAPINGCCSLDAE
# Excerpt: In this example, a racemic mixture of monochloroflosequinan and the sulfone derivative of monochloroflosequinan were independently subjected to biochemical enzyme assays to determine their respective percent inhibition of a variety of phosphodiesterases (PDE1-PDE6). The methods used have been adapted from those described in the scientific literature, see Hidaka and Asano “Human blood platelet 3′:5′ cyclic nucleotide phosphodiesterase. Isolation of low-Km and high Km phosphodiesterase.” Biochem. Biophys. […] Unhydrolyzed cAMP was bound to AGI-X2 resin, and the remaining [^3H]adenosine in the aqueous phase was quantitated by scintillation counting. • PDE2: PDE2 partially purified from human platelets was used. […] Unhydrolyzed cAMP was bound to AGI-X2 resin, and the remaining [^3H]adenosine in the aqueous phase was quantitated by scintillation counting. • PDE3: PDE3 partially purified from human platelets was used. […] Unhydrolyzed cAMP was bound to AGI-X2 resin, and the remaining [^3H]adenosine in the aqueous phase was quantitated by scintillation counting. • PDE4: PDE4 partially purified from human U-937 pronocytic cells was used. […] Unhydrolyzed cAMP was bound to AGI-X2 resin, and the remaining [^3H]adenosine in the aqueous phase was quantitated by scintillation counting. • PDE5: PDE5 partially purified from human platelets was used. […]
# PDE3 = biological target: T3, PDE3 (Homo sapiens, UniProt Q14432); assay: PDE3 enzyme inhibition assay; format: biochemical
# T3 construct: PDE3 partially purified from human platelets was used; from tissue; host or cells: human platelets
# T3 sequence (Q14432 whole entry): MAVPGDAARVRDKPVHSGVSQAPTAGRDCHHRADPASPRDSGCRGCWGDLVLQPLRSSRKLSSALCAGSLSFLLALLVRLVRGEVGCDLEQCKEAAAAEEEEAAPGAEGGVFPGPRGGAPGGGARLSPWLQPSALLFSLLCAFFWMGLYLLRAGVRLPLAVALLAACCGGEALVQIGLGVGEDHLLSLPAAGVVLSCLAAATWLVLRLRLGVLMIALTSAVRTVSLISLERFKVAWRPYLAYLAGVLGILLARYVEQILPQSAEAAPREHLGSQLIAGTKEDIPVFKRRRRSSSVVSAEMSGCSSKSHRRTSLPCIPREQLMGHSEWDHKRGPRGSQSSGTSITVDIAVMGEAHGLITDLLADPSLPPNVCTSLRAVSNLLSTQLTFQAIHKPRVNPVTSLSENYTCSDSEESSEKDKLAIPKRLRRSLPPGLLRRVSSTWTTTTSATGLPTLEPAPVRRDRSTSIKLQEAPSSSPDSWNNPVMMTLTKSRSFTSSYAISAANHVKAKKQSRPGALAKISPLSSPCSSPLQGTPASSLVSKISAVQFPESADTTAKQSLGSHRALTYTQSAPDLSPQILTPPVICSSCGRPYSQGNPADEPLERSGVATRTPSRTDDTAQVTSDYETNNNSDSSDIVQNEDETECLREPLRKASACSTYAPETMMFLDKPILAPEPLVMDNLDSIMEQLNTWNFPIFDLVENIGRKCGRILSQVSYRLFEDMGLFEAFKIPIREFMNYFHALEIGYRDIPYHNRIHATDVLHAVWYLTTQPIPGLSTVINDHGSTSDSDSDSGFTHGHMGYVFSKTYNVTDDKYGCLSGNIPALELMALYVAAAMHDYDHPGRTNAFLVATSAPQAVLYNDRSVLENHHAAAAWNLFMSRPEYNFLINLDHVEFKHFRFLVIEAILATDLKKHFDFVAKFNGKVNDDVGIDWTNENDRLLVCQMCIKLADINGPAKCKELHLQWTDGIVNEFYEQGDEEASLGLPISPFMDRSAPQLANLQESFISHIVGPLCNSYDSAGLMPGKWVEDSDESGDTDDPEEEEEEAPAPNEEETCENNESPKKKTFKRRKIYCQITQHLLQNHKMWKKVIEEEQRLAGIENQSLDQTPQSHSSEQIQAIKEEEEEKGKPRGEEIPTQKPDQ
# Excerpt: In this example, a racemic mixture of monochloroflosequinan and the sulfone derivative of monochloroflosequinan were independently subjected to biochemical enzyme assays to determine their respective percent inhibition of a variety of phosphodiesterases (PDE1-PDE6). The methods used have been adapted from those described in the scientific literature, see Hidaka and Asano “Human blood platelet 3′:5′ cyclic nucleotide phosphodiesterase. Isolation of low-Km and high Km phosphodiesterase.” Biochem. Biophys. Acta 429:485 (1976); Nicholoson et al. “Differential modulation of tissue function and therapeutic potential of selective inhibitors of cyclic nucleotide phosphodiesterase isoenzymes” Trends Pharmacol. Sci. 12:19 (1991); Cortijo et al. “Investigation into the role of phosphodiesterase IV in bronchorelaxation, including studies with hyman bronchus.” Br. J. Pharmacol. 108:562 (1993); Baehr et al. “Isolation and characterization of cGMP phosphodiesterase from bovine rod outer segments.” J. Biol. Chem. 254:11669 (1979) and Gillespie and Beavo “Inhibition and stimulation of photoreceptor phosphodiesterase by dipyridamole and M&B 22,948” Molecular Pharm. 36:773 (1989). A brief summary of the conditions for each enzyme assay is provided below: • PDE1: PDE1 partially purified from bovine heart was used. The compounds were independently incubated with 13 μg PDE1 enzyme, 1.01 μM [^3H]cAMP+cAMP and CaCl2/calmodulin in Tris buffer pH 7.5 for 20 minutes at either 25° C. or 30° C. The reaction was terminated by boiling for 2 minutes, and the resulting AMP was converted to adenosine by addition of 10 mg/ml snake venom nucleotidase and further incubation at 30° C. for 10 minutes. Unhydrolyzed cAMP was bound to AGI-X2 resin, and the remaining [^3H]adenosine in the aqueous phase was quantitated by scintillation counting. • PDE2: PDE2 partially purified from human platelets was used. The compounds were independently incubated with 23 μg PDE2 enzyme, 25.1 μM [^3H]cAMP+cAMP in Tris buffer pH 7.5 for 20 minutes at either 25° C. or 30° C. […] Unhydrolyzed cAMP was bound to AGI-X2 resin, and the remaining [^3H]adenosine in the aqueous phase was quantitated by scintillation counting. • PDE3: PDE3 partially purified from human platelets was used. […] Unhydrolyzed cAMP was bound to AGI-X2 resin, and the remaining [^3H]adenosine in the aqueous phase was quantitated by scintillation counting. • PDE4: PDE4 partially purified from human U-937 pronocytic cells was used. […] Unhydrolyzed cAMP was bound to AGI-X2 resin, and the remaining [^3H]adenosine in the aqueous phase was quantitated by scintillation counting. • PDE5: PDE5 partially purified from human platelets was used. […]
compound,measurement,setting,value
"Cn1cc([S@+]([O-])CCl)c(=O)c2ccc(F)cc21 (single isomer, unassigned) [(+)-enantiomer of monochloroflosequinan]",inhibition of PDE1,"PDE1; 200 μM, 25° C.",greater than 50%
same,inhibition of PDE2,"PDE2; 200 μM, 25° C.",greater than 50%
same,inhibition of PDE3,"PDE3; 200 μM, 25° C.",greater than 50%
"Cn1cc([S@@+]([O-])CCl)c(=O)c2ccc(F)cc21 (single isomer, unassigned) [(−)-enantiomer of monochloroflosequinan]",inhibition of PDE1,"PDE1; 200 μM, 25° C.",greater than 50%
same,inhibition of PDE3,"PDE3; 200 μM, 25° C.",greater than 50%
"Cn1cc([S+]([O-])C(Cl)Cl)c(=O)c2ccc(F)cc21 (stereo not shown) [dichloroflosequinan, 3-dichloromethylsulfinyl-7-fluoro-1-methyl-4-quinolone]",inhibition of PDE1,"PDE1; varying concentrations, 25° C.",greater than 50%
same,inhibition of PDE3,"PDE3; varying concentrations, 25° C.",greater than 50%
"Cn1cc([S+]([O-])CCl)c(=O)c2ccc(F)cc21 (racemic) [monochloroflosequinan, 3-chloromethylsulfinyl-7-fluoro-1-methyl-4-quinolone]",inhibition of PDE1,"PDE1; 100 uM, 30° C.",Significant inhibition
same,inhibition of PDE2,"PDE2; 100 uM, 30° C.",Significant inhibition
same,inhibition of PDE3,"PDE3; 100 uM, 30° C.",Significant inhibition

# From patent US7041677B2, “Use of monochloroflosequinan in the treatment of sexual dysfunction” (R.T. Alamo Ventures I, LLC, priority 2002, dated 2006)
